From US4352792A, “3-Alkoxyflavone antiviral agents” (priority 1979, dated 1982)
≈ marks a conversion by molar mass, not a printed value. Where two headings read alike, the source gives them in different places.

Key:
Coxsackie virus A21 = test: in vitro antiviral spectrum; assay type: cell-based; details: read-out: Minimum inhibitory concentration
rhinovirus type 21 = test: in vitro antiviral spectrum; assay type: cell-based; details: Enterovirus; rhinovirus type 21; read-out: Minimum inhibitory concentration
rhinovirus type 50 = test: in vitro antiviral spectrum; assay type: cell-based; details: Enterovirus; rhinovirus type 50; read-out: Minimum inhibitory concentration
rhinovirus type 32 = test: in vitro antiviral spectrum; assay type: cell-based; details: Enterovirus; rhinovirus type 32; read-out: Minimum inhibitory concentration
rhinovirus type 9 = test: in vitro antiviral spectrum; assay type: cell-based; details: Enterovirus; rhinovirus type 9; read-out: Minimum inhibitory concentration
rhinovirus type 34 = test: in vitro antiviral spectrum; assay type: cell-based; details: Enterovirus; rhinovirus type 34; read-out: Minimum inhibitory concentration
poliovirus type 1 = test: microbe, parasite or virus in culture; assay type: cell-based; details: Enterovirus C, read-out: Minimum inhibitory concentration
rhinovirus type 4 = test: in vitro antiviral spectrum; assay type: cell-based; details: Enterovirus; rhinovirus type 4; read-out: Minimum inhibitory concentration
rhinovirus type 17 = test: in vitro antiviral spectrum; assay type: cell-based; details: Enterovirus; rhinovirus type 17; read-out: Minimum inhibitory concentration
HeLa cell = HeLa cell growth; assay type: cell-based; details: 0.5 to 2 μg/ml
rhinovirus type 30 = test: in vitro antiviral spectrum; assay type: cell-based; details: Enterovirus; rhinovirus type 30; read-out: Minimum inhibitory concentration
rhinovirus type 47 = test: in vitro antiviral spectrum; assay type: cell-based; details: Enterovirus; rhinovirus type 47; read-out: Minimum inhibitory concentration
rhinovirus type 39 = test: in vitro antiviral spectrum; assay type: cell-based; details: Enterovirus; rhinovirus type 39; read-out: Minimum inhibitory concentration
rhinovirus type 2 = test: in vitro antiviral spectrum; assay type: cell-based; details: Enterovirus; rhinovirus type 2; read-out: Minimum inhibitory concentration
ECHO virus type 12 = test: in vitro antiviral spectrum; assay type: cell-based; details: read-out: Minimum inhibitory concentration
ECHO virus type 11 = test: in vitro antiviral spectrum; assay type: cell-based; details: read-out: Minimum inhibitory concentration
ECHO virus type 9 = test: in vitro antiviral spectrum; assay type: cell-based; details: read-out: Minimum inhibitory concentration
Coxsackie virus B1 [1] = test: Inhibition of viral cytopathogenic effect in HeLa cells (Coxsackie virus B1); assay type: cell-based
rhinovirus type 53 = test: in vitro antiviral spectrum; assay type: cell-based; details: Enterovirus; rhinovirus type 53; read-out: Minimum inhibitory concentration
rhinovirus type 26 = test: in vitro antiviral spectrum; assay type: cell-based; details: Enterovirus; rhinovirus type 26; read-out: Minimum inhibitory concentration
acute toxicity in mice = details: mouse, in vivo, day 21
rhinovirus type 36 = test: in vitro antiviral spectrum; assay type: cell-based; details: Enterovirus; rhinovirus type 36; read-out: Minimum inhibitory concentration
[2] = system: rhinoviruses HGP, 1A and Coxsackie virus B1; test: Inhibition of viral replication in HeLa cells; assay type: cell-based; details: concentrations of 0.5 to 2 μg/ml, HeLa cells (FIG. 1)
rhinovirus HGP = test: Inhibition of viral cytopathogenic effect in HeLa cells (rhinovirus HGP); assay type: cell-based; details: Enterovirus, HeLa, 48 h, read-out: IC50 rhinovirus HGP
rhinovirus type 44 = test: in vitro antiviral spectrum; assay type: cell-based; details: Enterovirus; rhinovirus type 44; read-out: Minimum inhibitory concentration
rhinovirus type 13 = test: in vitro antiviral spectrum; assay type: cell-based; details: Enterovirus; rhinovirus type 13; read-out: Minimum inhibitory concentration
ECHO virus type 19 = test: in vitro antiviral spectrum; assay type: cell-based; details: read-out: Minimum inhibitory concentration
rhinovirus type 16 = test: in vitro antiviral spectrum; assay type: cell-based; details: Enterovirus; rhinovirus type 16; read-out: Minimum inhibitory concentration
rhinovirus type 1A = test: in vitro antiviral spectrum; assay type: cell-based; details: Enterovirus; rhinovirus type 1A; read-out: Minimum inhibitory concentration
rhinovirus type 55 = test: in vitro antiviral spectrum; assay type: cell-based; details: Enterovirus; rhinovirus type 55; read-out: Minimum inhibitory concentration
rhinovirus type 3 = test: in vitro antiviral spectrum; assay type: cell-based; details: Enterovirus; rhinovirus type 3; read-out: Minimum inhibitory concentration
Coxsackie virus B1 [3] = test: Anti-Coxsackie virus activity, lethal infection in mice; details: Mus musculus, 504 h, read-out: Survival
rhinovirus type 14 = test: in vitro antiviral spectrum; assay type: cell-based; details: Enterovirus; rhinovirus type 14; read-out: Minimum inhibitory concentration

## COc1cc(O)c2c(=O)c(OC)c(-c3ccc(O)c(OC)c3)oc2c1 [4',5-dihydroxy-3,3',7-trimethoxyflavone]
Coxsackie virus A21
  MIC: 0.1 to 0.3 µg/mL (≈ 0.29 to 0.871 µM)
Rhinovirus type 21
  MIC: 0.3 µg/mL (≈ 0.871 µM)
Rhinovirus type 50
  MIC: 0.3 µg/mL (≈ 0.871 µM)
Rhinovirus type 32
  MIC: 0.1 µg/mL (≈ 0.29 µM)
Rhinovirus type 9
  MIC: 0.1 µg/mL (≈ 0.29 µM)
Rhinovirus type 34
  MIC: 0.3 µg/mL (≈ 0.871 µM)
Poliovirus type 1
  MIC: 0.1 to 0.3 µg/mL (≈ 0.29 to 0.871 µM)
Rhinovirus type 4
  MIC: 1 µg/mL (≈ 2.9 µM)
Rhinovirus type 17
  MIC: 0.3 µg/mL (≈ 0.871 µM)
HeLa cell
  effect on HeLa cell growth: HeLa cell growth is not affected
Rhinovirus type 30
  MIC: 0.03 to 0.1 µg/mL (≈ 0.0871 to 0.29 µM)
Rhinovirus type 47
  MIC: 0.3 µg/mL (≈ 0.871 µM)
Rhinovirus type 39
  MIC: 0.1 µg/mL (≈ 0.29 µM)
Rhinovirus type 2
  MIC: 0.1 µg/mL (≈ 0.29 µM)
ECHO virus type 12
  MIC: 0.1 to 0.3 µg/mL (≈ 0.29 to 0.871 µM)
ECHO virus type 11
  MIC: 0.1 to 0.3 µg/mL (≈ 0.29 to 0.871 µM)
ECHO virus type 9
  MIC: 0.1 to 0.3 µg/mL (≈ 0.29 to 0.871 µM)
Coxsackie virus B1 [1]; Coxsackie virus B1, read-out: Minimum inhibitory concentration
  MIC: 0.1 to 0.2 µg/mL (≈ 0.29 to 0.581 µM)
Coxsackie virus B1 [1]; HeLa, 24 h, read-out: IC50 Coxsackie virus B1
  IC50: 0.1 to 0.2 µg/mL (≈ 0.29 to 0.581 µM)
Rhinovirus type 53
  MIC: 0.1 µg/mL (≈ 0.29 µM)
Rhinovirus type 26
  MIC: 0.3 µg/mL (≈ 0.871 µM)
Acute toxicity in mice; ip, single dose i.p., dissolved in dimethyl sulfoxide, read-out: LD50 i.p.
  LD50 at 504 h: > 1000 mg/kg
Acute toxicity in mice; po, single dose p.o., suspended in 0.5% carboxymethylcellulose, read-out: LD50 p.o.
  LD50 at 504 h: > 5000 mg/kg
Rhinovirus type 36
  MIC: 0.3 µg/mL (≈ 0.871 µM)
[2]
  reduction of viral replication: reduces the viral replication quite considerably
Rhinovirus HGP
  IC50: 0.1 µg/mL (≈ 0.29 µM)
Rhinovirus type 44
  MIC: 0.05 to 0.5 µg/mL (≈ 0.145 to 1.45 µM)
Rhinovirus type 13
  MIC: 0.3 to 1 µg/mL (≈ 0.871 to 2.9 µM)
ECHO virus type 19
  MIC: 0.1 to 0.3 µg/mL (≈ 0.29 to 0.871 µM)
Rhinovirus type 16
  MIC: 0.3 µg/mL (≈ 0.871 µM)
Rhinovirus type 1A
  MIC: 0.03 µg/mL (≈ 0.0871 µM)
Rhinovirus type 55
  MIC: 0.3 µg/mL (≈ 0.871 µM)
Rhinovirus type 3
  MIC: 0.1 µg/mL (≈ 0.29 µM)
Coxsackie virus B1 [3]; ip
  responders at 10 mg/kg: 10%
  responders at 20 mg/kg: 20%
Coxsackie virus B1 [3]; po
  responders at 20 mg/kg: 10%
  responders at 40 mg/kg: 30%
Rhinovirus type 14
  MIC: 0.1 µg/mL (≈ 0.29 µM)
